Reference: patent publication EP0415470A2, “Aminopeptidase” (CAMPINA MELKUNIE B.V., priority 1989, dated 1991)
Entries after “also recorded” stand apart in the source; their conditions may differ. Where a SMILES comes first, the peptide text is derived from it. The star is where a group is joined. pNA = O=[N+]([O-])c1ccc(N*)cc1

What was measured:
[1] = target: T1, aminopeptidase of L. lactis subsp. cremoris Wg2 (Lactococcus lactis subsp. cremoris, UniProt P0C2T8); test: Hydrolysis of lysyl-p-nitroanilide / X-p-nitroanilide substrates (release of p-nitroanilide at 410 nm); details: for Relative activity (%): relative hydrolysis velocity of X-p-nitroanilide substrates
T1 sequence (P0C2T8 1-846): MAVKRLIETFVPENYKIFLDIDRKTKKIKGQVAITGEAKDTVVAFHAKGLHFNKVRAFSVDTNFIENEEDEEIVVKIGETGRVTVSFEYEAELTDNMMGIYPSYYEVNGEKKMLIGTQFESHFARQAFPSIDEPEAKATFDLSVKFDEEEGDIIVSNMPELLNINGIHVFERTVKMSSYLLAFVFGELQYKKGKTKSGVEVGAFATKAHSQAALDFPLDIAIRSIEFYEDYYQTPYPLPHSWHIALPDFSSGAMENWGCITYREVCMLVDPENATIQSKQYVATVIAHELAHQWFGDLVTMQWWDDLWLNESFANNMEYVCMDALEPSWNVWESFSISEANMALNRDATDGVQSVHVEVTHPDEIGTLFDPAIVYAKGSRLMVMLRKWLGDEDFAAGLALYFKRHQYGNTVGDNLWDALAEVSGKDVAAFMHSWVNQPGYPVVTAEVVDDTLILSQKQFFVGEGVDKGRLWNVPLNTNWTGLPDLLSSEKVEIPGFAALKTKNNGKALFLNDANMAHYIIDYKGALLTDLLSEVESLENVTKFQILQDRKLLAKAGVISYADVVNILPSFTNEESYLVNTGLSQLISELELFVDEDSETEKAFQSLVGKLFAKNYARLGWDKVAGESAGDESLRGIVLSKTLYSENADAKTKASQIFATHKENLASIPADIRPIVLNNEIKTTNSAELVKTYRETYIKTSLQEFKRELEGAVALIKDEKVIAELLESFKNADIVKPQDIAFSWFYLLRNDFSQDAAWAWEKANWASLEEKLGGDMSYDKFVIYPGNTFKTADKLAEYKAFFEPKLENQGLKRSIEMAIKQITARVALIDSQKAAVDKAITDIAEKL

[2] = target: T1, aminopeptidase of L. lactis subsp. cremoris Wg2; test: Hydrolysis of peptides detected by thin-layer chromatography (TLC); format: biochemical; design: The cell extract obtained after sonication and centrifugation of L. lactis subsp. cremoris Wg2; endogenous in cells; host or cells: Proteinase-negative variant of Lactococcus lactis subsp. cremoris Wg2; Enzyme purified from the cell-free extract by DEAE-Sephacel, phenyl-Sepharose, Sephadex G-100 SF and MA7P HPLC; not recombinant; key to Activity: + : hydrolysis; - : no hydrolysis to be observed; details: for hydrolysis of peptides (in words): peptide as substrate of the aminopeptidase; for Activity: substrate specificity, 2 mM substrate, 20 mM HEPES pH 7, 60 min. at 30°C, TLC
Method: Hydrolysis of several peptides was detected by thin-­layer chromatography (TLC). Peptidase activity was determined as follows: the reaction mixture containing 2 mM substrate in 20 mM 4-(2-hydroxyethyl)-1-piperazine-ethanesulphonic acid (HEPES) pH 7 and a suitable amount of enzyme was incubated for 60 min. at 30°C. The reaction mixture (10 microliter) was then placed on a precoated silica gel 60 plate having a layer thickness of 0.25 cm (Merck, Darmstadt, West-Germany). A 75% (wt./vol.) phenol/water mixture and in some cases a 4/1/1 (vol./vol./vol.) mixture of n-butanol, acetic acid and water was used as mobile phase. As a control, 2 mM of each standard peptide was also placed on the plate. The silica gels were coloured by spraying them with 0.1% (wt./vol.) ninhydrin in 99% ethanol. Peptides and amino acids became visible after incubation of the silica gel in an oven for 5 min. at 80°C.

[3] = target: T1, aminopeptidase of L. lactis subsp. cremoris Wg2; format: biochemical
[4] = target: T1, aminopeptidase of L. lactis subsp. cremoris Wg2; format: biochemical; remark: listed apart in the source
[5] = target: T1, aminopeptidase of L. lactis subsp. cremoris Wg2; test: Hydrolysis of lysyl-p-nitroanilide / X-p-nitroanilide substrates (release of p-nitroanilide at 410 nm); format: biochemical; design: The cell extract obtained after sonication and centrifugation of L. lactis subsp. cremoris Wg2; endogenous in cells; host or cells: Proteinase-negative variant of Lactococcus lactis subsp. cremoris Wg2; Enzyme purified from the cell-free extract by DEAE-Sephacel, phenyl-Sepharose, Sephadex G-100 SF and MA7P HPLC; not recombinant; details: relative hydrolysis velocity of X-p-nitroanilide substrates
Method: Hydrolysis of lysyl-p-nitroanilide was determined by the method of Exterkate, Neth. Milk Diary J. 29, 1975, 303-318. A 2 mM solution of lysyl-p-nitroanilide was incubated for 15 minutes with a suitable amount of enzyme. The reaction was stopped by adding acetic acid up to a final concentration of 10%, and the amount of p-nitroanilide was measured at 410 nm (Hitachi U-1100 spectrophotometer).
All measurements of enzyme activities were carried out at 30°C in 20 mM HEPES pH 7, unless specified.
The highest activity was found for lysyl-p-nitroanilide and to a lesser extent for leucyl-p-nitroanilide. […] The affinity of the enzyme for lysyl-p-nitroanilide was determined.

[6] = substrate: NCCCCC(N)C(=O)Nc1ccc([N+](=O)[O-])cc1; test: purified protein, by the assay type; details: other: Lineweaver-Burk plot, substrate of the aminopeptidase; pH 7.0; 30.0 °C

## CC(C)CC(N)C(=O)Nc1ccc([N+](=O)[O-])cc1 (stereo not drawn) [Leu-pNA, leucyl-p-nitroanilide]
[1]
  hydrolysis of p-nitroanilide substrates (in words): hydrolyses
  Relative activity (%): 24%

## benzoyl-glycyl-lysine
[2]
  hydrolysis of peptides (in words): does not seem capable of hydrolysis

## OCCS [β-mercaptoethanol]
[3]
  inactivating effects of pCMB and mersalyl undone by reducing agent (in words): completely undone
[4]
  effect of chemical reagents on the aminopeptidase activity (in words): no inhibitory effect; also recorded: insensitive

## O=C(O)CN(CCN(CC(=O)O)CC(=O)O)CC(=O)O [EDTA]
[4]
  inhibition of the enzyme activity by chelating agents (in words): complete inhibition; also recorded: sensitivity

## O=C(O)c1cc[c]([Hg][Cl])cc1 [pCMB, p-chloromercuribenzoate]
[4]
  effect of chemical reagents on the aminopeptidase activity (in words): completely inhibited; also recorded: strong inhibition

## CC(N)C(=O)Nc1ccc([N+](=O)[O-])cc1 (stereo not drawn) [Ala-pNA]
[1]
  Relative activity (%): 4%

## Leu-Leu
[2]
  hydrolysis of peptides (in words): hydrolyses
  Activity: +

## NCCCCC(N)C(=O)Nc1ccc([N+](=O)[O-])cc1 (stereo not drawn) [Lys-pNA, lysyl-p-nitroanilide]
[1]
  hydrolysis of p-nitroanilide substrates (in words): hydrolyses
  Relative activity (%): 100%
[1]; Lineweaver-Burk plot
  maximum peptide hydrolysis velocity: 1 millimol/min./mg

## Phe-Leu
[2]
  hydrolysis of peptides (in words): does not prove capable of significant hydrolysis
  Activity: -

## COC(CNC(=O)c1ccccc1OCC(=O)O)[CH2][Hg][OH] (stereo not drawn) [mersalyl, O-(3-hydroxymercuri-2-methoxypropyl) carbamyl phenoxyacetate]
[4]
  effect of chemical reagents on the aminopeptidase activity (in words): completely inhibited; also recorded: strong inhibition

## O=S(=O)(O)c1cc[c]([Hg][Cl])cc1 [pCMBS, p-chloromercuribenzenesulphonate]
[4]
  effect of chemical reagents on the aminopeptidase activity (in words): completely inhibited; also recorded: strong inhibition

## PMSF
[4]
  effect of chemical reagents on the aminopeptidase activity (in words): insensitive

## CSCCC(N)C(=O)Nc1ccc([N+](=O)[O-])cc1 (stereo not drawn) [Met-pNA, methionyl-p-nitroanilide]
[1]
  Relative activity (%): 8%

## Bradykinin (RPPGFSPFR; Bradykinin; UniProt P01042 381-389, looked up)
[2]
  hydrolysis of peptides (in words): hydrolyses; also recorded: can also act on
  Activity: +

## NCC(=O)Nc1ccc([N+](=O)[O-])cc1 [Gly-pNA]
[1]
  Relative activity (%): < 1%

## OC(CS)C(O)CS (stereo not drawn) [DTT, dithiotreitol]
[3]
  inactivating effects of pCMB and mersalyl undone by reducing agent (in words): completely undone
[4]
  effect of chemical reagents on the aminopeptidase activity (in words): no inhibitory effect; also recorded: insensitive

## NC(Cc1ccccc1)C(=O)Nc1ccc([N+](=O)[O-])cc1 (stereo not drawn) [Phe-pNA]
[1]
  Relative activity (%): 4%

## Phe-Val
[2]
  hydrolysis of peptides (in words): does not prove capable of significant hydrolysis
  Activity: -

## alanyl-alanine [Ala-Ala]
[2]; listed as ala-ala
  hydrolysis of peptides (in words): does not prove capable of significant hydrolysis
[2]; listed as alanyl-alanine
  hydrolysis of peptides (in words): not
[2]
  Activity: -

## CCN1C(=O)C=CC1=O [NEM, N-ethylmaleimide]
[4]
  effect of chemical reagents on the aminopeptidase activity (in words): inhibitory effect; also recorded: strong inhibition

## N[C@@H](CCC(=O)O)C(=O)Nc1ccc([N+](=O)[O-])cc1 [Glu-pNA]
[1]
  Relative activity (%): < 1%

## NC(=O)CI [iodoacetamide]
[4]
  effect of chemical reagents on the aminopeptidase activity (in words): inhibitory effect; also recorded: strong inhibition

## C[C@H](N)C(=O)N1CCC[C@H]1C(=O)Nc1ccc([N+](=O)[O-])cc1 [Ala-Pro-pNA] (H-Ala-Pro-pNA)
[5]
  Relative activity (%): 4%

## [Mg+2] [Mg⁺⁺]
[4]
  inhibitory effect of divalent cations on the enzyme activity (in words): no inhibitory effect at all
  restoration of the activity of the enzyme treated with 1,10-phenanthroline (in words): could not restore the enzyme activity

## carbobenzoxy-prolylalanine
[2]
  hydrolysis of peptides (in words): does not seem capable of hydrolysis

## [Ca+2] [Ca⁺⁺]
[4]
  inhibitory effect of divalent cations on the enzyme activity (in words): no inhibitory effect at all
  restoration of the activity of the enzyme treated with 1,10-phenanthroline (in words): could not restore the enzyme activity

## O=C(Nc1ccc([N+](=O)[O-])cc1)C1CCCN1 (stereo not drawn) [Pro-pNA]
[1]
  Relative activity (%): < 1%

## c1cnc2c(c1)ccc1cccnc12 [1,10-phenanthroline]
[4]
  inhibition of the enzyme activity by chelating agents (in words): complete inhibition; also recorded: sensitivity

## carboxybenzoxy-phenylalanyl-alanine
[2]
  hydrolysis of peptides (in words): does not seem capable of hydrolysis

B1: aminopeptidase of L. lactis subsp. cremoris Wg2 (Lactococcus cremoris) (protein)
chain: MAVKRLIETFVPENYKIFLDIDRKTKKIKGQVAITGEAKDTVVAFHAKGLHFNKVRAFSVDTNFIENEEDEEIVVKIGETGRVTVSFEYEAELTDNMMGIYPSYYEVNGEKKMLIGTQFESHFARQAFPSIDEPEAKATFDLSVKFDEEEGDIIVSNMPELLNINGIHVFERTVKMSSYLLAFVFGELQYKKGKTKSGVEVGAFATKAHSQAALDFPLDIAIRSIEFYEDYYQTPYPLPHSWHIALPDFSSGAMENWGCITYREVCMLVDPENATIQSKQYVATVIAHELAHQWFGDLVTMQWWDDLWLNESFANNMEYVCMDALEPSWNVWESFSISEANMALNRDATDGVQSVHVEVTHPDEIGTLFDPAIVYAKGSRLMVMLRKWLGDEDFAAGLALYFKRHQYGNTVGDNLWDALAEVSGKDVAAFMHSWVNQPGYPVVTAEVVDDTLILSQKQFFVGEGVDKGRLWNVPLNTNWTGLPDLLSSEKVEIPGFAALKTKNNGKALFLNDANMAHYIIDYKGALLTDLLSEVESLENVTKFQILQDRKLLAKAGVISYADVVNILPSFTNEESYLVNTGLSQLISELELFVDEDSETEKAFQSLVGKLFAKNYARLGWDKVAGESAGDESLRGIVLSKTLYSENADAKTKASQIFATHKENLASIPADIRPIVLNNEIKTTNSAELVKTYRETYIKTSLQEFKRELEGAVALIKDEKVIAELLESFKNADIVKPQDIAFSWFYLLRNDFSQDAAWAWEKANWASLEEKLGGDMSYDKFVIYPGNTFKTADKLAEYKAFFEPKLENQGLKRSIEMAIKQITARVALIDSQKAAVDKAITDIAEKL
[6]
  Km: 550 µM
  Vmax: 1000 µmol/min. mg protein
  kcat: 1580 s⁻¹
